Experiments:
[1] = system: SK-MEL-28; assay: Cytotoxicity against human SK-MEL-28 cells assessed as reduction in cell viability by MTT assay; format: functional, cell-based
[2] = system: A-375; assay: Cytotoxicity against human A-375 cells assessed as reduction in cell viability by MTT assay; format: functional, cell-based
[3] = system: T47D; assay: Cytotoxicity against human T47D cells assessed as cell viability at 10 uM incubated for 48 hrs by sulforhodamine B assay relative to control; format: functional; conditions: read-out: Activity
[4] = system: Hs-578T; assay: Cytotoxicity against human HS-578T cells assessed as cell viability at 10 uM incubated for 48 hrs by sulforhodamine B assay relative to control; format: functional; conditions: read-out: Activity
[5] = system: UO-31; assay: Cytotoxicity against human UO-31 cells assessed as cell viability at 10 uM incubated for 48 hrs by sulforhodamine B assay relative to control; format: functional; conditions: read-out: Activity
[6] = system: RXF 393; assay: Cytotoxicity against human RXF 393 cells assessed as cell viability at 10 uM incubated for 48 hrs by sulforhodamine B assay relative to control; format: functional; conditions: read-out: Activity
[7] = system: OVCAR-5; assay: Cytotoxicity against human OVCAR-5 cells assessed as cell viability at 10 uM incubated for 48 hrs by sulforhodamine B assay relative to control; format: functional; conditions: read-out: Activity
[8] = system: UACC-62; assay: Cytotoxicity against human UACC-62 cells assessed as cell viability at 10 uM incubated for 48 hrs by sulforhodamine B assay relative to control; format: functional; conditions: read-out: Activity
[9] = system: UACC-257; assay: Cytotoxicity against human UACC-257 cells assessed as cell viability at 10 uM incubated for 48 hrs by sulforhodamine B assay relative to control; format: functional; conditions: read-out: Activity
[10] = system: SK-MEL-5; assay: Cytotoxicity against human SK-MEL-5 cells assessed as cell viability at 10 uM incubated for 48 hrs by sulforhodamine B assay relative to control; format: functional; conditions: read-out: Activity
[11] = system: SK-MEL-2; assay: Cytotoxicity against human SK-MEL-2 cells assessed as cell viability at 10 uM incubated for 48 hrs by sulforhodamine B assay relative to control; format: functional; conditions: read-out: Activity
[12] = system: Malme-3M; assay: Cytotoxicity against human Malme-3M cells assessed as cell viability at 10 uM incubated for 48 hrs by sulforhodamine B assay relative to control; format: functional; conditions: read-out: Activity
[13] = system: MOLT-4; assay: Cytotoxicity against human MOLT-4 cells assessed as cell viability at 10 uM incubated for 48 hrs by sulforhodamine B assay relative to control; format: functional; conditions: read-out: Activity
[14] = system: EKVX; assay: Cytotoxicity against human EKVX cells assessed as cell viability at 10 uM incubated for 48 hrs by sulforhodamine B assay relative to control; format: functional; conditions: read-out: Activity
[15] = system: NCI-H522; assay: Cytotoxicity against human NCI-H522 cells assessed as cell viability at 10 uM incubated for 48 hrs by sulforhodamine B assay relative to control; format: functional; conditions: read-out: Activity
[16] = system: HCC 2998; assay: Cytotoxicity against human HCC 2998 cells assessed as cell viability at 10 uM incubated for 48 hrs by sulforhodamine B assay relative to control; format: functional; conditions: read-out: Activity
[17] = system: HCT-116; assay: Cytotoxicity against human HCT-116 cells assessed as cell viability at 10 uM incubated for 48 hrs by sulforhodamine B assay relative to control; format: functional; conditions: read-out: Activity
[18] = system: SW-620; assay: Cytotoxicity against human SW-620 cells assessed as cell viability at 10 uM incubated for 48 hrs by sulforhodamine B assay relative to control; format: functional; conditions: read-out: Activity
[19] = system: SF-539; assay: Cytotoxicity against human SF-539 cells assessed as cell viability at 10 uM incubated for 48 hrs by sulforhodamine B assay relative to control; format: functional; conditions: read-out: Activity
[20] = system: U-251; assay: Cytotoxicity against human U-251 cells assessed as cell viability at 10 uM incubated for 48 hrs by sulforhodamine B assay relative to control; format: functional; conditions: read-out: Activity

| Structure (SMILES) | IC50 [1] | IC50 [2] | viability at 10 µM [3] | viability at 10 µM [4] | viability at 10 µM [5] | viability at 10 µM [6] | viability at 10 µM [7] | viability at 10 µM [8] | viability at 10 µM [9] | viability at 10 µM [10] | viability at 10 µM [11] | viability at 10 µM [12] | viability at 10 µM [13] | viability at 10 µM [14] | viability at 10 µM [15] | viability at 10 µM [16] | viability at 10 µM [17] | viability at 10 µM [18] | viability at 10 µM [19] | viability at 10 µM [20] |
| --- | --- | --- | --- | --- | --- | --- | --- | --- | --- | --- | --- | --- | --- | --- | --- | --- | --- | --- | --- | --- |
| O=S(=O)(NCCNc1nccc(-c2c(-c3cccc(F)c3)nc3sccn23)n1)c1ccc(F)cc1 | 9.45 µM | 9.45 µM | 40.4% | 68% | 23.2% | 68.9% | 92.5% | 44.4% | 79.1% | 35.4% | 67.2% | 81.1% | 41.1% | 62.7% | 67% | 80.8% | 40% | 63% | 83.2% | 58.4% |
| O=S(=O)(NCCNc1nccc(-c2c(-c3cccc(F)c3)nc3sccn23)n1)c1cccc(F)c1 | 18.3 µM | 14.9 µM | 49.1% | 78.3% | 30.2% | 80.2% | 100% | 56.2% | 104% | 53.5% | 81.8% | 108% | 57.8% | 72.1% | 75.8% | 95.5% | 42.8% | 75.8% | 95.6% | 60.7% |
| O=S(=O)(NCCCNc1nccc(-c2c(-c3cccc(F)c3)nc3sccn23)n1)c1cccc(F)c1 | 8.55 µM | 13.7 µM | -2.25% | 63.7% | 28.2% | 78.8% | 110% | 6.36% | 50.8% | 13.5% | 47.6% | 63.2% | 9.94% | 52.4% | 21.9% | 99.3% | 48% | 76.7% | 86.4% | 70% |
| O=S(=O)(NCCNc1nccc(-c2c(-c3cccc(F)c3)nc3sccn23)n1)c1ccc(Br)cc1 | 13.5 µM | 13.5 µM | 30.5% | 63.6% | 21.2% | 72.7% | 83.6% | 35.8% | 82% | 31.5% | 71.7% | 71.1% | 35.7% | 59.5% | 62.6% | 79.5% | 33.9% | 54.8% | 76.4% | 53.4% |
| O=C(NCCCNc1nccc(-c2c(-c3cccc(F)c3)nc3sccn23)n1)c1ccc(F)cc1 | > 20 µM | 14.9 µM | 50.6% | 83.2% | 36.9% | 77.3% | 141% | 67.8% | 116% | 67.8% | 95% | 140% | 44.5% | 82% | 85.2% | 112% | 62.5% | 115% | 99.4% | 90.6% |
| O=S(=O)(NCCCNc1nccc(-c2c(-c3cccc(F)c3)nc3sccn23)n1)c1ccc(O)cc1 |  |  | 48.8% | 85.6% | 31.3% | 84% | 113% | 60.1% | 104% | 57% | 81.3% | 107% | 55.5% | 78.8% | 85% | 100% | 60% | 82.7% | 99.3% | 73.2% |
| O=S(=O)(NCCCNc1nccc(-c2c(-c3cccc(F)c3)nc3sccn23)n1)c1ccc(F)cc1 | > 20 µM | 14.5 µM | 18.6% | 90.1% | 38.8% | 85% | 130% | 35.4% | 112% | 47.3% | 76.6% | 102% | 47.1% | 80.4% | 54% | 116% | 59.4% | 106% | 115% | 90.6% |
| O=C(NCCCNc1nccc(-c2c(-c3cccc(F)c3)nc3sccn23)n1)C1CCCCC1 |  |  | 37.8% | 80.2% | 41% | 94.3% | 105% | 36.4% | 95.2% | 52.9% | 78.4% | 74.7% | 69.5% | 80.8% | 77.6% | 90.5% | 49.3% | 82.1% | 100% | 79.6% |
| O=C(NCCCNc1nccc(-c2c(-c3cccc(F)c3)nc3sccn23)n1)c1ccc(C(F)(F)F)cc1 |  |  | 62.6% | 75.7% | 35.3% | 74.6% | 126% | 69.6% | 106% | 75.3% | 98.8% | 121% | 44.8% | 72.2% | 90.3% | 112% | 66.7% | 111% | 104% | 83% |
| O=C(NCCNc1nccc(-c2c(-c3cccc(F)c3)nc3sccn23)n1)C1CCCCC1 |  |  | 30.2% | 91.8% | 40.3% | 78.2% | 141% | 58.4% | 113% | 59.6% | 60.1% | 130% | 55.4% | 80.4% | 79.3% | 104% | 51.9% | 114% | 84.9% | 90.5% |
| O=S(=O)(NCCCNc1nccc(-c2c(-c3cccc(F)c3)nc3sccn23)n1)c1cccc2ccccc12 |  |  | 18.4% | 55.9% | 20% | 62.9% | 80.9% | 24.3% | 72.8% | 31.8% | 47.8% | 78.7% | 29.3% | 56.1% | 56.3% | 16.3% | 32.4% | 42.1% | 72.8% | 59.1% |
| O=S(=O)(NCCNc1nccc(-c2c(-c3cccc(F)c3)nc3sccn23)n1)c1cccc2ccccc12 |  |  | 81.7% | 103% | 59.2% | 102% | 127% | 91.8% | 107% | 88.3% | 104% | 118% | 73.7% | 93.9% | 95.5% | 131% | 84.6% | 115% | 109% | 97.4% |

— ChEMBL document CHEMBL4665642, “Anticancer profile of newly synthesized BRAF inhibitors possess 5-(pyrimidin-4-yl)imidazo[2,1-b]thiazole scaffold” (Bioorg Med Chem, 2019)
